Data: patent US4603121A, “Enkephalin analogs” (G. D. Searle & Co., priority 1984, dated 1986)

Assays:
[1] = system: PBQ-induced writhing in mice; test: PBQ-Writhing assay; assay type: in vivo; conditions: male mice, subcutaneous, ED50 from number of animals protected compared to saline controls
Description: PBQ-Writhing assay. Groups of 10 male mice weighing 20 to 35 grams are used for each dose and for the vehicle control. Writhing is induced 30 or 60 minutes following drug or drug vehicle administration by the intraperitoneal injection of a 0.025 percent solution of PBQ and 5 percent ethanol. The number of separate writhing motions occurring in a ten minute period starting 5 minutes following the PBQ challenge is counted for each mouse. A positive antinociceptive affect is assured when an individual animals' writhing frequency is less than or equal to 50 percent of the vehicle control group median frequency. ED50 values based on the number of positive responders per dose group is determined using the method of Litchfield and Wilcoxon. M. R. Fennessy et al. The Assessment of and Problems Involved in the Experimental Evaluation of Narcotic Analgesics. In Methods in Narcotics Research, Marcel Dekker, Inc., New York, 1975. H. Bomberg et al. Use of Writhing Test for Evaluating Analgesic Activity of Narcotic Analgesics, Proc. Soc. Ext. Biol. Med. 118: 763-766, 1965.
The compounds of the invention were evaluated with respect to analgesic activity utilizing the test procedures described previously. Set forth in Table I below are the test results in the writhing assay for certain preferred compounds of the invention within formula I. The data summarized represents the ED50 calculated on the basis of the number of animals protected at a dose of 10 mg/Kg of the active test compound compared to saline controls.

[2] = system: brain opiate receptor sites; conditions: partially purified brain opiate receptor sites; cited from earlier work
opiate activity = conditions: cited from earlier work
rat = conditions: injected directly into the brain of the rat; cited from earlier work

Molecule	Activity (ED50 mg/Kg - Administered Subcutaneously) [1]	binding to opiate receptor sites [2]	activity in bioassays for opiate activity (opiate activity)	analgesic activity (rat)
2,6-dimethyltyrosyl-D-norleucylglycyl-3-cyclohexyl-N-(6-methoxy-6-oxohexyl)-L-alaninamide, monohydrochloride(diastereomer-D) [Example 104]	0.20 mg/kg			
COC(=O)CCCCCNC(=O)[C@H](CC1CCCCC1)N(C)C(=O)CNC(=O)[C@@H](CCSC)NC(=O)[C@@H](N)Cc1c(C)cc(O)cc1C.Cl [Example 43, 2,6-dimethyl-L-tyrosyl-D-methionylglycyl-N-(6-methoxy-6-oxohexyl)-3-cyclohexyl-N^α -methyl-L-alaninamide monohydrochloride]	0.20 mg/kg			
CSCC[C@@H](NC(=O)[C@@H](N)Cc1c(C)cc(O)cc1C)C(=O)NCC(=O)N[C@@H](CC1CCCCC1)C(=O)NCCCCCC(=O)O.Cl [Example 127, 2,6-dimethyl-L-tyrosyl-D-methionylglycyl-N-(5-carboxypentyl)-3-cyclohexyl-L-alaninamide, monohydrochloride]	0.09 mg/kg			
methionine enkephalin		binds stereospecifically	highly active	weak, fleeting analgesic activity
